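Results reflect a 48-hour exposure of cells in 96-well plates to compound at five concentrations. GI50: concentration for 50% inhibition of growth. At the TGI there is no net growth.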 Bounds are passed on as bounds.

Common to all, as to assay: DTP human tumour cell line panel, 48 h
For test [1], the system named is 786-0 renal.
Test [2] relates to HCC-2998 colon.
In test [3] the test system is HT29 colon.
For test [4], the system named is IGROV1 ovarian.
In test [5] the test system is K-562 leukemia.
Test [6] has as its system MDA-MB-435.
Test [7] concerns OVCAR-3 ovarian.
Test [8] concerns RXF 393 renal.
For test [9], the system named is SF-295 CNS.
Test [10] relates to SK-MEL-5 melanoma.

For the compound `CC(C)(C)OC(=O)N1CCc2c(sc3ncnc(N/N=C/c4cccc5ccccc45)c23)C1`, the GI50 is 4.83 µM in test [1]; 12.9 µM in test [2]; 4.07 µM in [3]; 3.94 µM in [4]; 2.88 µM in test [5]; 2.47 µM in [6]. The GI50 in test [7] was 3.95 µM; in [8], 2.54 µM; in [9] it was 3.72 µM; in test [10], 3.36 µM. Moreover, the TGI was more than 100 µM in test [1]; more than 100 µM in test [2]; more than 100 µM in test [3]; more than 100 µM in test [4]; 62.4 µM in [5]; 7.31 µM in test [6]. The TGI in test [7] is 77.7 µM; in test [8], 7.41 µM; in [9], 66.8 µM; in [10], 11.1 µM.

Turning to `C=CCCCCCCCCC(=O)[O][Sn]([CH2]CCC)([CH2]CCC)[CH2]CCC`, the GI50 in test [1] was 0.143 µM; in [2] it was 0.156 µM; in test [3] it was 0.154 µM; in test [4] it was 0.148 µM; in [5] it was 0.181 µM; in test [6] it was 0.153 µM. For the same compound, the GI50 in test [7] is 0.147 µM; in [8], 0.0991 µM; in [9], 0.159 µM; in test [10], 0.148 µM. The TGI in test [1] is 0.275 µM; in test [2], 0.291 µM; in test [3] it was 0.332 µM; in test [4], 0.335 µM; in [5] it was 0.457 µM; in [6] it was 0.319 µM. Further, the TGI worked out at 0.285 µM in [7], 0.255 µM in test [8], 0.337 µM in [9] and 0.282 µM in test [10].

For `CCC(C)c1c(Cl)nc(Cl)nc1Cl` (stereo not given), the concentration for total growth inhibition (TGI) in test [1] is 30 µM; in test [2], 60.6 µM; in [3] it was 24.1 µM; in test [4], 34.5 µM; in test [5] it was more than 100 µM; in test [6], 9.1 µM. Besides, the TGI worked out at 14.8 µM in test [7], 20.7 µM in [8], 42.2 µM in [9] and 13 µM in [10].

Consider `CS(=O)(=O)c1ccc([C@H]2O[C@@H](CO)C[C@]2(O)c2ccc(S(C)(=O)=O)cc2)cc1`, for which the GI50 in test [1], in [2], in test [3], in [4], in test [5] and in test [6] was more than 100 µM in each case. The GI50 in test [7], in test [8], in [9] and in [10] was more than 100 µM throughout. Besides, the TGI in test [1], in [2], in test [3], in [4], in test [5] and in test [6] was more than 100 µM throughout. Moreover, the concentration for total growth inhibition (TGI) in test [7], in test [8], in [9] and in test [10] was more than 100 µM each time.

`N#Cc1ccc(NC(=O)Nc2ccc(Oc3ccc(NC(=O)Nc4ccc(C#N)cc4)cc3)cc2)cc1`: the GI50 in test [1] is 10.5 µM; in test [2] it was 0.764 µM; in [3] it was 90 µM; in test [4], 30.4 µM; in [5], 2.11 µM; in test [6] it was 17.1 µM. Also, the GI50 was 19.4 µM in test [7], 15.3 µM in test [8], 0.379 µM in [9] and 20.2 µM in test [10]. Further, the TGI in test [1] is 63.4 µM; in [2], 7.53 µM; in [3] it was more than 100 µM; in test [4], more than 100 µM; in test [5] it was more than 100 µM; in test [6], more than 100 µM. In addition, the total growth inhibition concentration (TGI) in test [7] is more than 100 µM; in test [8], more than 100 µM; in [9], 13.6 µM; in [10], more than 100 µM.

On to `COC(=O)[C@]12CC[C@@H](C)[C@H](C)[C@@H]1C1=CC[C@@H]3[C@@]4(C)C/C(=N\O)[C@H](O)[C@@]5(C)COC(=C45)C[C@@]3(C)[C@]1(C)CC2`, for which the GI50 in test [1] is 1.76 µM; in test [2], 11.5 µM; in test [3], 2.88 µM; in [4], 8.87 µM; in test [5], 3.77 µM; in test [6], 8.28 µM. In addition, the GI50 was 5.47 µM in test [7], 2.41 µM in [8], 4.82 µM in [9] and 13.1 µM in test [10]. Moreover, the TGI worked out at 3.26 µM in [1]; 24.9 µM in test [2]; 9.31 µM in [3]; 25.1 µM in [4]; 14.9 µM in [5]; 22.2 µM in test [6]. Further, the TGI in [7] stood at 18.2 µM; in test [8] it was 7.36 µM; in [9] it was 17.1 µM; in [10] it was 25.8 µM.

Consider `Cc1ccc(NC(=O)c2cccc(N(C)C)c2)cc1NC(=O)c1ccc(O)cc1`, for which the GI50 was more than 71.5 µM in test [1]; 74.8 µM in test [2]; more than 57.3 µM in test [3]; more than 85.8 µM in [4]; 42.7 µM in [5]; 52.3 µM in test [6]. The GI50 in [7] is 67.3 µM; in test [8] it was 38 µM; in test [9], 37.6 µM; in test [10] it was 28.5 µM. For the same compound, the concentration for total growth inhibition (TGI) in test [1], in test [2], in test [3], in [4], in test [5] and in test [6] was more than 100 µM each time. Moreover, the TGI is more than 100 µM in test [7], more than 66.1 µM in test [8], more than 100 µM in [9] and more than 65.8 µM in test [10].

On to `COc1ccc(-c2cc(=O)c3ccc(O)cc3o2)cc1OC`, for which the TGI in test [1], in test [2], in test [3], in test [4], in test [5] and in [6] was more than 100 µM each time. The TGI is more than 100 µM in test [7], 38.6 µM in test [8], more than 100 µM in test [9] and 41.8 µM in test [10].

As for `CN1CCN(C(=O)OCc2nc3c(N4CCOCC4)nc(Cl)nc3n2C)CC1`, the GI50 in test [1] is 1.56 µM; in test [2] it was 1.62 µM; in [3], 0.898 µM; in [4], 1.24 µM; in test [5], 1.21 µM; in test [6], 1.16 µM. For the same compound, the GI50 in test [7] was 0.547 µM; in test [8], 1.08 µM; in test [9] it was 8.35 µM; in test [10], 1.55 µM. Moreover, the TGI in test [1] worked out at 3 µM; in test [2] it was 3.15 µM; in [3], 3.17 µM; in test [4], 2.57 µM; in [5] it was 15.7 µM; in test [6], 2.44 µM. For the same compound, the TGI is 2.15 µM in test [7], 2.31 µM in test [8], 20.7 µM in test [9] and 2.89 µM in [10].

As for `O=C(N/N=C/c1ccccc1O)c1ccccc1Nc1ccnc(C(F)(F)F)c1`, the GI50 was 0.46 µM in test [1]; 0.388 µM in [2]; 3.32 µM in test [3]; 0.0154 µM in test [4]; 0.53 µM in test [5]; 1.37 µM in test [6]. Also, the GI50 in [7] was 0.45 µM; in test [8], 1.05 µM; in test [9], 0.573 µM; in test [10] it was 0.432 µM. In addition, the TGI in [1] was 9.26 µM; in test [2], 24.7 µM; in test [3], 53.5 µM; in [4], 0.0883 µM; in test [5] it was more than 100 µM; in [6], more than 100 µM. For the same compound, the TGI in test [7] is 22.6 µM; in test [8], more than 40.3 µM; in [9], 27.6 µM; in test [10], 5.53 µM.

What is called GI50 is the concentration at which growth is held to half of that of the control. What is called TGI is the concentration giving total growth inhibition. The low end stands for greater sensitivity of the cells, the high end for lower sensitivity of the cells.

Values taken from PubChem BioAssay (NCI).
